The results in this text go back to patent US20040082623A1, “Fmoc-l-leucine and derivatives thereof as ppar-gamma agonists” (priority 2003, published 2004).

Series [1] addresses T1, PPARγ2 (Homo sapiens, UniProt P37231).
T1 sequence (P37231 1-505): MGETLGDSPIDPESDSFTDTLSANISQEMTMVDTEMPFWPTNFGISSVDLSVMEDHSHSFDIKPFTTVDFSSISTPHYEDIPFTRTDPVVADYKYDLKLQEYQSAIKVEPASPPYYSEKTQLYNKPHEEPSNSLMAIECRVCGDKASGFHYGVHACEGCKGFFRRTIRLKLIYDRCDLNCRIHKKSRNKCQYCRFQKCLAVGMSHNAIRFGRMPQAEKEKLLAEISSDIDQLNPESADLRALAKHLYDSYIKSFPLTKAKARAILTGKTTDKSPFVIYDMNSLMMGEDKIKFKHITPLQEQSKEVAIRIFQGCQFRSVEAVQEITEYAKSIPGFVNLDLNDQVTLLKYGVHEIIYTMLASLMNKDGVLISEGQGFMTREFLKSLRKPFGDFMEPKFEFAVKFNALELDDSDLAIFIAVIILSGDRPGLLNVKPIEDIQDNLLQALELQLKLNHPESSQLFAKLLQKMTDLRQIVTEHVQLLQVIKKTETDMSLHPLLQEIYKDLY
As to the kind of experiment: Transient transfection, PPARγ2 reporter (luciferase/β-galactosidase) in Hep G2 cells. Format: cell-based. The settings on record: HepG2 cells, pSG5-hPPARγ2, 24 h, F-L-leu at 10^−5 M. Further details: a construct containing the entire cDNA of the human PPARγ2 (hPPARγ2); expressed in transfected cells; host or cells: Hep G2. The protocol: Hep G2 cells were co-transfected with an expression vector for PPARγ2 (0.1 μg/well), pGL3-(Jwt)3TKLuc reporter construct (0.5 μg/well), and pCMV-βGal (0.5 μg/well), as a control of transfection efficiency (0.5 μg/well). The were then grown during 24 h in the presence or absence of indicated compound Activation is expressed as relative luciferase activity/β-galactosidase activity. Each point was performed in triplicate. This figure is representative of three independent experiments.
(§1) RK13 cells (A and D), CV1 cells (B) or Hep G2 cells (C) were co-transfected with an expression vector for PPARγ2 (0.1 μg/well), pGL3-(Jwt)3TKLuc reported construct (0.5 μg/well), and pCMV-βGal (0.5 μg/well), as a control of transfection efficiency (0.5 μg/well). They were then grown during 24 h in the presence or absence of indicated compound. Activation is expressed as relative luciferase activity/β ? galactosidase activity. Each point was performed in triplicate, and each figure i ? representative of four independent experiments.
(§2) The CV1, RK-13, and Hep G2 cell lines were obtained from ATCC (Rockville, Md.). Cells were maintained in Dulbecco's modified Eagle's minimal essential medium (DMEM) supplemented with 10% fetal calf serum (FCS), L-glutamine, and antibiotics. Transfections with chloramphenicol acetyltransferase (CAT) or luciferase (luc.) reporter constructs were carried out exactly as described previously (Schoonjans et al., 1996). The pGL3-(Jwt)3TKLuc and the pGL3-(Jwt)3TKCAT reporter constructs contain both three tandem repeats of the J site of the apolipoprotein A-II promoter cloned upstream of the herpes simplex virus thymidine kinase (TK) promoter and the luciferase or the CAT reporter genes respectively (Vu-Dac et al., 1995). The following expression vectors were used; pSG5-hPPARγ2, a construct containing the entire cDNA of the human PPARγ2 (hPPARγ2) (Fajas et al., 1997); pSG5-mPPARα (Isseman et al., 1993); and pCMV-βGal, as a control of transfection efficiency.

The target in series [2] is T1, PPARγ2. As to the kind of experiment: Transient transfection, PPARγ2 reporter in RK13 cells. The format is cell-based. Set-up: a construct containing the entire cDNA of the human PPARγ2 (hPPARγ2); expressed in transfected cells; host or cells: Hep G2, RK13 or CV1 cells. To be noted: RK13 cells, 10^−5 M added. The protocol:
as §1, §2

The next series has as its system db/db mice. The settings on record: db/db.

Method for db/db mice: Intraperitoneal glucose tolerance test (IPGTT) in C57BL/6j (A) or db/db (B) mice 10 to 12 weeks old (n=8).
All mice were maintained in a temperature-controlled (25° C.) facility with a strict 12 h ? light/dark cycle and were given free access to food (standard mice chow; DO4, UAR ? France) and water.
C57B1/6J and db/db mice (8 per group) were obtained through the Janvier laboratorie ? (Laval-Le Genest, France).

As to `CC(C)C[C@@H](NC(=O)OCC1c2ccccc2-c2ccccc21)C(=O)O` [FMOC-D-leucine, reference compound], the “PPARγ activation (relative luciferase activity/β-galactosidase activity)” value on PPARγ2 [1] was “no significant PPARγ activation”. For the same compound, at PPARγ2 [2], the “modification of PPARγ activity when added to a saturating concentration of rosiglitazone” value is given as “No significant modification”.
As to `CN(CCOc1ccc(CC2SC(=O)NC2=O)cc1)c1ccccn1` (centres unmarked) [rosiglitazone, reference compound], in the series with db/db mice (10 mg/kg/day i.p., 7 days, DMSO control 500), the “maximal glycemia in IPGTT” value amounted to 350 mg/dL. Besides, the “body weight vs control mice” value in the series on db/db mice (10 mg/kg/day, 8 days) is listed as “tendency to increase body weight”. In addition, the “fasting serum insulin levels (mean)” value with db/db mice (7 days treatment, DMSO group 180) amounted to 70 μUI/mL.
As to `O=C(N[C@@H](Cc1ccc(O)cc1)C(=O)O)OCC1c2ccccc2-c2ccccc21` [FMOC-L-tyrosine, reference compound], the “PPARγ activation (relative luciferase activity/β-galactosidase activity)” value on PPARγ2 [1] is given as “devoid of”; on PPARγ2 [1] (listed as FMOC substituted L-tyrosine derivative) it was “did not activate PPARγ”. At PPARγ2 [2], the “modification of PPARγ activity when added to a saturating concentration of rosiglitazone” value is on record as “No significant modification”.
